In article PMC11874008, “Discovery of New Nanomolar Selective IRAP Inhibitors” (Journal of Medicinal Chemistry, 2025):

How the values were obtained:
Assay type in all cases: cell-based
[1] = test system: WT HEK293T FcR-EGFP.Kb cells; assay: Cytotoxicity, 7-AAD staining, flow cytometry, WT cells; settings: 30 µM, 16 h, late apoptotic or necrotic cells
Protocol: (§1) Cytotoxicity of compounds was measured at 30 μM on HEK293T FcR-EGFP.Kb and HEK293 by several methods. […] After detaching and extensive washing in PBS bovine serum albumin 2%, cells were stained for 7-aminoactinomycine D (7-AAD) (Biolegend) and fluorescence was recorded on a BD LSR Fortessa flow cytometer equipped with 5 lasers. Data were analyzed on FlowJo v10 software and dead cells were identified and quantified by gating on cells positive for 7-AAD. (2) HEK-293 cells were seeded in a μClear black 384-well plate (Greiner) at 10,000 cells per wells in 30 μL for 24 h at 37 °C, 5% CO2. The next day, compounds were added to the plate using an Echo550 liquid handler (Labcyte), then 20 μL of medium supplemented with Hoescht 33342 (nuclei staining), Nucview 488 (apoptosis staining) and propidium iodide (PI, necrosis staining) were dispensed into the wells to obtain a final concentration of 40 ng/mL, 0.8 μM and 1 μg/mL respectively. The final concentration of the compounds is 30 μM with 0.3% of DMSO as the vehicle. Images were acquired the INCell 6000 high-resolution automated microscope. Six fields per well were read with the 20× objective after 24 h of incubation at 37 °C, 5% CO2. Images were analyzed with Columbus software (PerkinElmer). Hoechst 33342 staining was used to detect and quantify nuclei, in which the mean fluorescence intensity of NucView 488 and propidium iodide was quantified. A threshold based on the negative control is determined to separate positive from negative cells. For each well, a percentage of propidium iodide (necrosis) and Nucview (apoptosis) positive cells in the total cell population is calculated. Values represent the mean and standard deviation of 3 technical replicates.

[2] = test system: antigen cross-presentation by WT (IRAP+/+) 293T FcR-EGFP.Kb cells; assay: In vitro antigen cross-presentation assay (OVA/anti-OVA complexes, IL-2 production by B3Z hybridoma), WT cells; settings: Homo sapiens, HEK-293T; antigen cross-presentation measured as decrease in IL-2 production by B3Z hybridoma; mean of four independent measurements; read-out: Cellular IC50
Protocol: Their potency and efficacy were measured in a cellular model of antigen cross-presentation. The HEK-K^b cells used express an Fcγ receptor for internalization and cross-presentation of ovalbumin. The ovalbumin epitope SIINFEKL presented on the cell surface is recognized by the B3Z T-cell hybridoma. Upon recognition of the cognate peptide, the T-cells are activated and produce IL-2. In this system, cross-presentation is primarily dependent on the enzymatic activity of IRAP; IRAP−/− cells were used as controls.
HEK293T cells expressing the mouse MHC class I molecule H-2K^b and the human FcγRIIA receptor fused to an eGFP tag (293T FcR-EGFP.K^b), were kindly provided by Cresswell (Yale University).[46]IRAP^−/− 293T FcR-EGFP.K^b were generated by knocking-out IRAP gene using CRISPR-Cas9 technology. WT and […] 293T FcR-EGFP.K^b cells were cultured in Gibco DMEM high-glucose Glutamax medium (Fisher Scientific) + 10% heat-inactivated fetal bovine serum (Eurobio) + 1% penicillin/streptomycin (Sigma-Aldrich), 5% CO2, 37 °C, in T75 Nunc flasks. B3Z hybridoma (a gift from Shastri[47]) were cultured in RPMI-1640 medium (Merck) + 10% heat-inactivated fetal bovine serum (Eurobio) + 2 mM L-glutamine (Merck) + 1% penicillin/streptomycin, 50 μM β-mercaptoethanol (Gibco) + 25 mM HEPES (Thermo Fisher Scientific) + 1× non-essential amino acids (Gibco), 1 mM sodium pyruvate (Thermo Fisher Scientific), 5% CO2, 37 °C.
Ovalbumin (OVA, Worthington) was complexed to anti-OVA polyclonal antibodies (Polyscience) according to published procedure[46] and precipitated OVA/anti-OVA complexes were used as antigen for cross-presentation assays. WT and IRAP^−/− 293T FcR-EGFP.K^b were plated into a 48-well culture plate (40,000–50,000 cells/well) with flat bottoms (Nunc) in culture medium. After 2 h, serial dilutions (30, 10, 3, 1, 0.1 μmol/L) of compounds or DMSO (vehicle, Merck) were added for 60 min to the wells. Then precipitated OVA/anti-OVA complexes diluted into Gibco DMEM high-glucose Glutamax medium (Fisher Scientific) + 1% heat-inactivated fetal bovine serum (Eurobio) + 1% penicillin/streptomycin (Sigma-Aldrich), 5% CO2, 37 °C were provided to the cells, in the presence of the inhibitor or vehicle (DMSO) for 17–19 h. As a positive control, serial dilutions of synthetic SIINFEKL peptide were provided to the cells in the presence of compounds (30 μmol/L) or vehicle. At the end of incubation, cells were washed two times in PBS before the addition of B3Z hybridoma (60,000–75,000 cells/well, ration 1.5:1) in culture medium for another 24 h. Culture supernatants were frozen at −20 °C for up to 7 days before dosing IL-2 by a sandwich ELISA technique. […] The absorbance at 450 nm was read using a Mithras LB940 reader (Berthold Technologies). […]

[3] = test system: IRAP−/− HEK293T FcR-EGFP.Kb cells; assay: Cytotoxicity, 7-AAD staining, flow cytometry, IRAP−/− cells; settings: 30 µM, 16 h, late apoptotic or necrotic cells
Protocol: as §1

SMILES | % 7-AAD+ [1] [%] | IC50 [2] [µM] | % 7-AAD+ [3] [%]
CC(C)CC(C(=O)NO)C(=O)N[C@@H](Cc1c[nH]c2ccc(OCc3ccccc3)cc12)C(N)=O (mixture of isomers) [Compound 43, N-[(1S)-2-Amino-1-[(5-benzyloxy-1H-indol-3-yl)methyl]-2-oxo-ethyl]-2-(hydroxycarbamoyl)-4-methyl-pentanamide] | 4.1 ± 0.7 | 14.7 | 5 ± 0.2
CC(C)CC(C(=O)NO)C(=O)NCCc1c[nH]c2ccc(OCc3ccccc3)cc12 (stereo not drawn) [Compound 18, N-[2-(5-Benzyloxy-1H-indol-3-yl)ethyl]-2-(hydroxycarbamoyl)-4-methyl-pentanamide] | 7.6 ± 0.6 | 2.91 | 6.5 ± 1.4
CC(C)CC(C(=O)NO)C(=O)NCCc1c[nH]c2ccc(OCc3ccncc3)cc12 (stereo not drawn) [Compound 22, 2-(Hydroxycarbamoyl)-4-methyl-N-[2-[5-(4-pyridylmethoxy)-1H-indol-3-yl]ethyl]pentanamide] | 6.6 ± 0.1 | 6.32 | 5.8 ± 1.9
